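The compound was tested at five concentrations on cells cultured in 96-well plates, with a 48-hour exposure period. Here, GI50 denotes the concentration required for 50% inhibition of growth. The concentration for full growth arrest is given as TGI.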
What was measured:
Test in all cases: NCI anticancer screen, dose series, 48 h
[1] = test system: MDA-MB-231 breast
[2] = test system: UACC-257 melanoma
[3] = test system: BT-549 breast
[4] = test system: K-562 leukemia
[5] = test system: NCI/ADR-RES ovarian
[6] = test system: SW-620 colon
[7] = test system: SF-295 CNS
[8] = test system: SK-MEL-2 melanoma
[9] = test system: NCI-H226 lung
[10] = test system: MALME-3M melanoma
[11] = test system: NCI-H23 lung
[12] = test system: HCT-15 colon
[13] = test system: A498 renal
[14] = test system: SNB-19 CNS
[15] = test system: TK-10 renal
[16] = test system: SK-MEL-5 melanoma
[17] = test system: HS 578T breast
[18] = test system: 786-0 renal
[19] = test system: OVCAR-3 ovarian
[20] = test system: SF-539 CNS
[21] = test system: NCI-H522 lung
[22] = test system: T-47D breast
[23] = test system: DU-145 prostate
[24] = test system: RPMI-8226 leukemia
[25] = test system: SNB-75 CNS
[26] = test system: NCI-H460 lung
[27] = test system: SN12C renal
[28] = test system: SR leukemia
[29] = test system: CCRF-CEM leukemia
[30] = test system: OVCAR-4 ovarian
[31] = test system: KM12 colon
[32] = test system: HOP-92 NSCLC
[33] = test system: HCC-2998 colon
[34] = test system: SK-OV-3 ovarian
[35] = test system: CAKI-1 renal
[36] = test system: UO-31 renal
[37] = test system: PC-3 prostate
[38] = test system: SK-MEL-28 melanoma
[39] = test system: SF-268 CNS
[40] = test system: ACHN renal
[41] = test system: OVCAR-5 ovarian
[42] = test system: IGROV1 ovarian
[43] = test system: HT29 colon
[44] = test system: LOX IMVI melanoma
[45] = test system: U251 CNS
[46] = test system: OVCAR-8 ovarian
[47] = test system: A549 NSCLC
[48] = test system: HCT-116 colon
[49] = test system: MCF7 breast
[50] = test system: HOP-62 NSCLC
[51] = test system: HL-60(TB) leukemia
[52] = test system: MDA-MB-435
[53] = test system: MOLT-4 leukemia
[54] = test system: COLO 205 colon
[55] = test system: UACC-62 melanoma
[56] = test system: RXF 393 renal
[57] = test system: M14 melanoma

## COc1ccc(Nc2cc(C)nc(NCCCNc3ccnc4cc(Cl)ccc34)n2)cc1
[1]
  GI50: 1.55 µM
  TGI: 3.31 µM
[2]
  GI50: 1.84 µM
  TGI: 3.51 µM
[3]
  GI50: 1.86 µM
  TGI: 4.67 µM
[4]
  GI50: 0.495 µM
  TGI: 2.28 µM
[5]
  GI50: 2.38 µM
  TGI: 6.27 µM
[6]
  GI50: 1.61 µM
  TGI: 3.51 µM
[7]
  GI50: 1.34 µM
  TGI: 2.73 µM
[8]
  GI50: 2.19 µM
  TGI: 3.76 µM
[9]
  GI50: 2.08 µM
  TGI: 5.17 µM
[10]
  GI50: 2.07 µM
  TGI: 3.94 µM
[11]
  GI50: 2.27 µM
  TGI: 5.78 µM
[12]
  GI50: 1.03 µM
  TGI: 2.49 µM
[13]
  GI50: 1.49 µM
  TGI: 3.39 µM
[14]
  GI50: 3.48 µM
  TGI: 13.4 µM
[15]
  GI50: 1.89 µM
  TGI: 3.41 µM
[16]
  GI50: 1.4 µM
  TGI: 2.76 µM
[17]
  GI50: 1.8 µM
  TGI: 4.39 µM
[18]
  GI50: 1.67 µM
  TGI: 3.26 µM
[19]
  GI50: 1.65 µM
  TGI: 3.12 µM
[20]
  GI50: 1.24 µM
  TGI: 2.64 µM
[21]
  GI50: 2.04 µM
  TGI: 3.65 µM
[22]
  GI50: 1.68 µM
  TGI: 3.69 µM
[23]
  GI50: 3.4 µM
  TGI: 10.7 µM
[24]
  GI50: 1.81 µM
  TGI: 5 µM
[25]
  GI50: 1.28 µM
  TGI: 2.54 µM
[26]
  GI50: 1.78 µM
  TGI: 3.8 µM
[27]
  GI50: 2.74 µM
  TGI: 10.8 µM
[28]
  GI50: 0.778 µM
  TGI: 3.62 µM
[29]
  GI50: 1.31 µM
  TGI: 6.49 µM
[30]
  GI50: 1.44 µM
  TGI: 4.86 µM
[31]
  GI50: 1.88 µM
  TGI: 3.58 µM
[32]
  GI50: 1.24 µM
  TGI: 3.3 µM
[33]
  GI50: 1.65 µM
  TGI: 3.45 µM
[34]
  GI50: 1.67 µM
  TGI: 3.2 µM
[35]
  GI50: 1.5 µM
  TGI: 2.87 µM
[36]
  GI50: 1.52 µM
  TGI: 2.95 µM
[37]
  GI50: 2.35 µM
  TGI: 9.9 µM
[38]
  GI50: 1.65 µM
  TGI: 3.16 µM
[39]
  GI50: 1.8 µM
  TGI: 3.61 µM
[40]
  GI50: 1.61 µM
  TGI: 3.16 µM
[41]
  GI50: 2.35 µM
  TGI: 6.69 µM
[42]
  GI50: 2.25 µM
  TGI: 6.09 µM
[43]
  GI50: 1.1 µM
  TGI: 2.67 µM
[44]
  GI50: 1.4 µM
  TGI: 2.85 µM
[45]
  GI50: 1.39 µM
  TGI: 2.8 µM
[46]
  GI50: 2.42 µM
  TGI: 6.03 µM
[47]
  GI50: 1.91 µM
  TGI: 3.86 µM
[48]
  GI50: 1.27 µM
  TGI: 3.82 µM
[49]
  GI50: 1.16 µM
  TGI: 2.74 µM
[50]
  GI50: 1.65 µM
  TGI: 3.93 µM
[51]
  GI50: 2.37 µM
  TGI: 5.66 µM
[52]
  GI50: 1.35 µM
  TGI: 2.64 µM
[53]
  GI50: 2.95 µM
  TGI: > 100 µM
[54]
  GI50: 1.58 µM
  TGI: 3.22 µM
[55]
  GI50: 1.81 µM
  TGI: 3.44 µM

## COc1ccc(/C=C/C(=O)c2ccc(OC)c(OC)c2)cc1O
[1]
  GI50: 4.76 µM
  TGI: 31.8 µM
[2]
  GI50: 13.8 µM
  TGI: 26.9 µM
[3]
  GI50: 5.5 µM
  TGI: 17.4 µM
[4]
  GI50: 3.31 µM
  TGI: > 100 µM
[5]
  GI50: 3.88 µM
  TGI: 49.1 µM
[6]
  GI50: 3.09 µM
  TGI: 12.8 µM
[8]
  GI50: 14.9 µM
  TGI: 32.9 µM
[9]
  GI50: 11.1 µM
  TGI: 25.4 µM
[10]
  GI50: 15.8 µM
  TGI: 31.7 µM
[11]
  GI50: 9.91 µM
  TGI: 30.4 µM
[12]
  GI50: 3.41 µM
  TGI: 32.9 µM
[13]
  GI50: 4.84 µM
  TGI: 20.3 µM
[14]
  GI50: 6.42 µM
  TGI: 20.8 µM
[15]
  GI50: 11.4 µM
  TGI: 30.4 µM
[16]
  GI50: 5.9 µM
  TGI: 18.8 µM
[17]
  GI50: 11 µM
  TGI: 90.9 µM
[18]
  GI50: 14.2 µM
  TGI: 65.8 µM
[19]
  GI50: 2.56 µM
  TGI: 6.31 µM
[20]
  GI50: 2.49 µM
  TGI: 7.34 µM
[21]
  GI50: 3.42 µM
  TGI: 12.4 µM
[22]
  GI50: 5.74 µM
  TGI: 25.5 µM
[23]
  GI50: 2.34 µM
  TGI: 5.64 µM
[24]
  GI50: 3.19 µM
  TGI: 15.1 µM
[26]
  GI50: 3.44 µM
  TGI: 11.8 µM
[27]
  GI50: 3.74 µM
  TGI: 15.6 µM
[28]
  GI50: 0.393 µM
  TGI: > 100 µM
[29]
  GI50: 3.51 µM
  TGI: 23.9 µM
[30]
  GI50: 8.45 µM
  TGI: 20.8 µM
[31]
  GI50: 3.57 µM
  TGI: 13.3 µM
[32]
  GI50: 2.02 µM
  TGI: 13.6 µM
[33]
  GI50: 9.1 µM
  TGI: 22.1 µM
[34]
  GI50: 6.51 µM
  TGI: 45 µM
[35]
  GI50: 18.1 µM
  TGI: > 100 µM
[36]
  GI50: 5.83 µM
  TGI: 19.2 µM
[56]
  GI50: 2.63 µM
  TGI: 7.62 µM
[37]
  GI50: 12.8 µM
  TGI: 39.6 µM
[38]
  GI50: 12.9 µM
  TGI: 27.4 µM
[39]
  GI50: 8.74 µM
  TGI: 29.1 µM
[40]
  GI50: 6.15 µM
  TGI: > 100 µM
[41]
  GI50: 4.94 µM
  TGI: 28.9 µM
[42]
  GI50: 7.03 µM
  TGI: 39.9 µM
[43]
  GI50: 5.91 µM
  TGI: 20.5 µM
[44]
  GI50: 5.69 µM
  TGI: 18.6 µM
[45]
  GI50: 3.59 µM
  TGI: 14.6 µM
[46]
  GI50: 2.98 µM
  TGI: 10.9 µM
[47]
  GI50: 2.99 µM
  TGI: 15.1 µM
[48]
  GI50: 3.35 µM
  TGI: 12.8 µM
[49]
  GI50: 4.58 µM
  TGI: 16.2 µM
[57]
  GI50: 10.9 µM
  TGI: 23.3 µM
[50]
  GI50: 3.61 µM
  TGI: 14.5 µM
[51]
  GI50: 13.9 µM
  TGI: 52.2 µM
[52]
  GI50: 5.22 µM
  TGI: 23.5 µM
[53]
  GI50: 4.32 µM
  TGI: 26.1 µM
[54]
  GI50: 12.5 µM
  TGI: 25 µM
[55]
  GI50: 11.2 µM
  TGI: 24.3 µM

Reference: PubChem BioAssay (NCI)
